These results are taken from patent publication US20250250646A1, “DUAL GENETIC REPORTERS IN HUMAN PLURIPOTENT CELLS FOR USE AS ALTERNATIVE TO MOUSE EMBRYO ASSAY” (Nexpring US Opco Inc., priority 2022, published 2025).

One data set deals with CGA-snLuc cells. The note with it: MEAlt assays; low levels of adulterant.
A further data set deals with SOX2-snLuc cells. The settings on record: MEAlt assays; low levels of adulterant.

Description for CGA-snLuc cells: (§1) To perform this assay, cells from the cell lines described in Example 1 were thawed using standard procedures and plated on Vitronectin coated wells of a 96-well plate in Essential 8 Flex medium with Revitacell supplement. Plating density for SOX2-snLuc cells was approximately 20,000 cells per well and for the CGA-snLuc cells, approximately 15,000 cells per well. Empty wells were filled with PBS to reduce variation in Nanoluciferase concentration related to evaporation. Cells were allowed to recover for 7-18 hours prior to exposure to test media.
For CGA-snLuc cells the activation of the reporter required medium that supported trophectoderm/placental differentiation, such as BAP medium. […] DAF-BAP contained DMEM with 25 mM HEPES and 4.5 g/L Glucose and without L-Glutamine, 100 ng/ml BMP-4, 1 μM A83-01, 0.1 μM PD173074, 5 mg/mL of AlbumiNZ Bovine Albumin Low Free Fatty Acid, and 40 μM forskolin. Media was pre-warmed prior to forskolin addition to prevent precipitation.
Following recovery from thawing, media was exchanged to the respective test medium for each cell line. […] Secreted Nanoluciferase was detected by removing 10% of the culture media and mixing in a white assay plate with substrate and buffer using the Promega Nano-Glo Luciferase Assay kit. Luminescence was measured with a BioTek Cytation 1 imaging reader. […]
Description for SOX2-snLuc cells: as §1
For SOX2-snLuc cells the test media was Essential 8 Flex.
Following recovery from thawing, media was exchanged to the respective test medium for each cell line. […] In the case of SOX2-snLuc cells, a baseline read of Luciferase expression was optionally performed prior to media exchange to assess variations in plating density or post-thaw recovery. Exposure to test medium was for 24-96 hours for SOX2-snLuc cells and 48-96 hours for CGA-snLuc cells. Secreted Nanoluciferase was detected by removing 10% of the culture media and mixing in a white assay plate with substrate and buffer using the Promega Nano-Glo Luciferase Assay kit. Luminescence was measured with a BioTek Cytation 1 imaging reader.
The assay was also tested in the context of detecting an adulterant, ethylene glycol (EG), that is known to affect viability of mouse embryos.

Regarding `C=O` [formaldehyde], the “detection of adulterant by the MEAlt assay” value with CGA-snLuc cells and in the data set on SOX2-snLuc cells was “successfully detect low levels” each time.
As to triton-x-100, the “detection of adulterant by the MEAlt assay” value with CGA-snLuc cells and in the data set with SOX2-snLuc cells was “successfully detect low levels” in each case.
